Test results as given in publication PMC10653547, “Synergistic effect of two antimicrobial peptides, BP203 and MAP-0403 J-2 with conventional antibiotics against colistin-resistant Escherichia coli and Klebsiella pneumoniae clinical isolates” (PLOS ONE, 2023).

Tests used:
[1] = system: colistin-resistant E. coli clinical isolates; experiment: Disk diffusion antimicrobial susceptibility testing (CLSI); assay type: cell-based, Escherichia coli
Protocol: (§1) Ten non-duplicate clinical isolates of colistin-resistant E. coli (EC) and ten non-duplicate clinical isolates of colistin-resistant K. pneumoniae (KP) were obtained from the bacterial repository of the Division of Infectious Diseases and Tropical Medicine, Department of Medicine, Faculty of Medicine Siriraj Hospital, Mahidol University. The species identification was conducted through standard biochemical tests. Antimicrobial susceptibility testing was carried out using the disk diffusion method following CLSI guidelines. Additionally, the assessment of colistin resistance in all isolates was performed by broth microdilution following CLSI recommendations. […] The amino acid sequences of BP203 and MAP-0403 J-2 were retrieved from previous studies. These peptides are BP100 and MAP-0403 analogs, respectively. […] Antibiotic disks and defibrinated sheep blood were obtained from Oxoid (Basingstoke, UK). All culture media were purchased from Becton Dickinson (Frankin Lakes, NJ, USA). All chemicals were obtained from Sigma-Aldrich (St. Louis, MO, USA).

[2] = system: colistin-resistant K. pneumoniae clinical isolates; experiment: as above; assay type: cell-based, Klebsiella pneumoniae
Protocol: as §1

[3] = system: colistin-resistant E. coli clinical isolates; experiment: Checkerboard assay for synergy testing; assay type: cell-based, Escherichia coli
Protocol: (§2) The synergistic activities of various two-antimicrobial combinations against colistin-resistant E. coli and K. pneumoniae isolates were evaluated using the checkerboard assay, which was performed in 96-well plates. […] Two-fold serial dilutions of peptides and antibiotics were independently prepared in CAMHB. Afterward, a mixture of different concentrations of the antibiotics and peptides was added to the wells of the microplates. Antibiotics and peptides were also dispended alone in the first row and the first column, respectively. Bacterial inoculum was added to the 96-well plate to achieve a final concentration of 5 × 10^5 CFU/mL. Then, plates were incubated at 37 °C for 20–24 h. MICs were recorded as the minimum concentration of antimicrobial agents without bacterial growth. The interaction between the antimicrobials was determined by calculating the fractional inhibitory concentration index (FICI) according to the formula: FICI = FIC(drug A) + FIC(drug B), where FIC = the MIC of the drug when in the combination/MIC of drug tested individually.

[4] = system: colistin-resistant K. pneumoniae clinical isolates; experiment: Checkerboard assay for synergy testing; assay type: cell-based, Klebsiella pneumoniae
Protocol: as §2

[5] = isolate EC-01, checkerboard Chloramphenicol+BP203
[6] = isolate EC-01, checkerboard Chloramphenicol+MAP-0403 J-2
[7] = isolate EC-02, checkerboard Chloramphenicol+BP203
[8] = isolate EC-02, checkerboard Chloramphenicol+MAP-0403 J-2
[9] = isolate EC-03, checkerboard Chloramphenicol+BP203
[10] = isolate EC-03, checkerboard Chloramphenicol+MAP-0403 J-2
[11] = isolate EC-04, checkerboard Chloramphenicol+BP203
[12] = isolate EC-05, checkerboard Chloramphenicol+BP203
[13] = isolate EC-05, checkerboard Chloramphenicol+MAP-0403 J-2
[14] = isolate EC-06, checkerboard Chloramphenicol+BP203
[15] = isolate EC-06, checkerboard Chloramphenicol+MAP-0403 J-2
[16] = isolate EC-07, checkerboard Chloramphenicol+BP203
[17] = isolate EC-07, checkerboard Chloramphenicol+MAP-0403 J-2
[18] = isolate EC-08, checkerboard Chloramphenicol+BP203
[19] = isolate EC-08, checkerboard Chloramphenicol+MAP-0403 J-2
[20] = isolate EC-09, checkerboard Chloramphenicol+BP203
[21] = isolate EC-09, checkerboard Chloramphenicol+MAP-0403 J-2
[22] = isolate EC-10, checkerboard Chloramphenicol+BP203
[23] = isolate EC-10, checkerboard Chloramphenicol+MAP-0403 J-2
[24] = isolate KP-01, checkerboard Chloramphenicol+BP203
[25] = isolate KP-01, checkerboard Chloramphenicol+MAP-0403 J-2
[26] = isolate KP-02, checkerboard Chloramphenicol+BP203
[27] = isolate KP-02, checkerboard Chloramphenicol+MAP-0403 J-2
[28] = isolate KP-03, checkerboard Chloramphenicol+BP203
[29] = isolate KP-03, checkerboard Chloramphenicol+MAP-0403 J-2
[30] = isolate KP-04, checkerboard Chloramphenicol+BP203
[31] = isolate KP-04, checkerboard Chloramphenicol+MAP-0403 J-2
[32] = isolate KP-05, checkerboard Chloramphenicol+BP203
[33] = isolate KP-05, checkerboard Chloramphenicol+MAP-0403 J-2
[34] = isolate KP-06, checkerboard Chloramphenicol+BP203
[35] = isolate KP-06, checkerboard Chloramphenicol+MAP-0403 J-2
[36] = isolate KP-07, checkerboard Chloramphenicol+BP203
[37] = isolate KP-07, checkerboard Chloramphenicol+MAP-0403 J-2
[38] = isolate KP-08, checkerboard Chloramphenicol+BP203
[39] = isolate KP-08, checkerboard Chloramphenicol+MAP-0403 J-2
[40] = isolate KP-09, checkerboard Chloramphenicol+BP203
[41] = isolate KP-09, checkerboard Chloramphenicol+MAP-0403 J-2
[42] = isolate KP-10, checkerboard Chloramphenicol+BP203
[43] = isolate KP-10, checkerboard Chloramphenicol+MAP-0403 J-2

MIC alone [3, 5]: 128 µg/mL
MIC combination [3, 5]: 1 µg/mL
MIC alone [3, 6]: 128 µg/mL
MIC combination [3, 6]: 64 µg/mL
MIC alone [3, 7]: 64 µg/mL
MIC combination [3, 7]: 32 µg/mL
MIC alone [3, 8]: 64 µg/mL
MIC combination [3, 8]: 32 µg/mL
MIC alone [3, 9]: 64 µg/mL
MIC combination [3, 9]: 32 µg/mL
MIC alone [3, 10]: 64 µg/mL
MIC combination [3, 10]: 16 µg/mL
MIC alone [3, 11]: 32 µg/mL
MIC combination [3, 11]: 1 µg/mL
MIC combination ([3]; isolate EC-04, checkerboard Chloramphenicol+MAP-0403 J-2): 128 µg/mL
MIC alone [3, 12]: 64 µg/mL
MIC combination [3, 12]: 32 µg/mL
MIC alone [3, 13]: 64 µg/mL
MIC combination [3, 13]: 32 µg/mL
MIC alone [3, 14]: 16 µg/mL
MIC combination [3, 14]: 4 µg/mL
MIC alone [3, 15]: 8 µg/mL
MIC combination [3, 15]: 4 µg/mL
MIC alone [3, 16]: 256 µg/mL
MIC combination [3, 16]: 64 µg/mL
MIC alone [3, 17]: 64 µg/mL
MIC combination [3, 17]: 32 µg/mL
MIC alone [3, 18]: 64 µg/mL
MIC combination [3, 18]: 32 µg/mL
MIC alone [3, 19]: 64 µg/mL
MIC combination [3, 19]: 16 µg/mL
MIC alone [3, 20]: 256 µg/mL
MIC combination [3, 20]: 64 µg/mL
MIC alone [3, 21]: 256 µg/mL
MIC combination [3, 21]: 64 µg/mL
MIC alone [3, 22]: 256 µg/mL
MIC combination [3, 22]: 32 µg/mL
MIC alone [3, 23]: 256 µg/mL
MIC combination [3, 23]: 64 µg/mL
MIC alone [4, 24]: 512 µg/mL
MIC combination [4, 24]: 128 µg/mL
MIC alone [4, 25]: 1020 µg/mL
MIC combination [4, 25]: 256 µg/mL
MIC alone [4, 26]: 512 µg/mL
MIC combination [4, 26]: 128 µg/mL
MIC alone [4, 27]: 512 µg/mL
MIC combination [4, 27]: 128 µg/mL
MIC alone [4, 28]: 8 µg/mL
MIC combination [4, 28]: 2 µg/mL
MIC alone [4, 29]: 8 µg/mL
MIC combination [4, 29]: 2 µg/mL
MIC alone [4, 30]: 8 µg/mL
MIC combination [4, 30]: 4 µg/mL
MIC alone [4, 31]: 8 µg/mL
MIC combination [4, 31]: 2 µg/mL
MIC alone [4, 32]: 4 µg/mL
MIC combination [4, 32]: 2 µg/mL
MIC alone [4, 33]: 1020 µg/mL
MIC combination [4, 33]: 256 µg/mL
MIC alone [4, 34]: 512 µg/mL
MIC combination [4, 34]: 128 µg/mL
MIC alone [4, 35]: 32 µg/mL
MIC combination [4, 35]: 8 µg/mL
MIC alone [4, 36]: 512 µg/mL
MIC combination [4, 36]: 128 µg/mL
MIC alone [4, 37]: 8 µg/mL
MIC combination [4, 37]: 4 µg/mL
MIC alone [4, 38]: 4 µg/mL
MIC combination [4, 38]: 1 µg/mL
MIC alone [4, 39]: 8 µg/mL
MIC combination [4, 39]: 4 µg/mL
MIC alone [4, 40]: 32 µg/mL
MIC combination [4, 40]: 4 µg/mL
MIC alone [4, 41]: 32 µg/mL
MIC combination [4, 41]: 16 µg/mL
MIC alone [4, 42]: 64 µg/mL
MIC combination [4, 42]: 8 µg/mL
MIC alone [4, 43]: 64 µg/mL
MIC combination [4, 43]: 4 µg/mL
SMILES: O=C(N[C@H](CO)[C@H](O)c1ccc([N+](=O)[O-])cc1)C(Cl)Cl [C, chloramphenicol]
Interpreted results of disk diffusion ([1]; EC-01): R
Interpreted results of disk diffusion ([1]; EC-02): R
Interpreted results of disk diffusion ([1]; EC-03): R
Interpreted results of disk diffusion ([1]; EC-04): R
Interpreted results of disk diffusion ([1]; EC-05): R
Interpreted results of disk diffusion ([1]; EC-06): S
Interpreted results of disk diffusion ([1]; EC-07): R
Interpreted results of disk diffusion ([1]; EC-08): R
Interpreted results of disk diffusion ([1]; EC-09): R
Interpreted results of disk diffusion ([1]; EC-10): R
%Resistance ([1]; ten E. coli isolates, disk diffusion): 90%
Interpreted results of disk diffusion ([2]; KP-01): R
Interpreted results of disk diffusion ([2]; KP-02): R
Interpreted results of disk diffusion ([2]; KP-03): S
Interpreted results of disk diffusion ([2]; KP-04): S
Interpreted results of disk diffusion ([2]; KP-05): S
Interpreted results of disk diffusion ([2]; KP-06): R
Interpreted results of disk diffusion ([2]; KP-07): I
Interpreted results of disk diffusion ([2]; KP-08): S
Interpreted results of disk diffusion ([2]; KP-09): I
Interpreted results of disk diffusion ([2]; KP-10): R
%Resistance ([2]; ten K. pneumoniae isolates, disk diffusion): 40%
